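Cultured in 96-well plates, cells were exposed to test compound for 48 hours across five concentrations. Abbreviation: GI50, concentration required for 50% inhibition of growth.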 Activity calls are given as the source filed them. Rule as the data show it: active = GI50 up to about 1.1 µM and inactive = higher.
Tests used:
Assay in all cases: NCI tumour cell line growth inhibition, 48 h
[1] = test system: HCT-15
[2] = test system: SF-295
[3] = test system: HCT-116
[4] = test system: SF-539
[5] = test system: SK-MEL-5
[6] = test system: MCF7
[7] = test system: NCI-H522
[8] = test system: LOX IMVI
[9] = test system: OVCAR-5
[10] = test system: A549
[11] = test system: MDA-MB-435
[12] = test system: OVCAR-4
[13] = test system: CCRF-CEM
[14] = test system: 786-0
[15] = test system: HCC 2998
[16] = test system: DU-145
[17] = test system: MOLT-4
[18] = test system: OVCAR-8
[19] = test system: HOP-92
[20] = test system: A498

Measured: GI50

Oc1ccc([C@H]2c3c(O)cc(O)cc3C3c4c(cc(O)cc4[C@@H]2[C@H]2c4cc(O)cc5c4C(c4cc(O)cc(O)c4[C@@H]2c2ccc(O)cc2)[C@@H](c2ccc(O)cc2)O5)O[C@@H]3c2ccc(O)cc2)cc1 (stereo partly drawn)
active: [3] 0.861 µM | [4] 0.564 µM | [6] 0.955 µM | [9] 0.678 µM | [10] 0.634 µM | [12] 0.83 µM | [15] 0.452 µM | [17] 0.975 µM
> 100 µM: [1]
inactive: [2] 3.86 µM | [5] 7.41 µM | [7] 7.45 µM | [8] 2.41 µM | [11] 2.59 µM | [13] 1.53 µM | [14] 4.94 µM | [16] 2.99 µM | [18] 2.69 µM

Brc1ccc(-c2cc(-c3ccc4c(c3)OCO4)c(-c3cccs3)n2Cc2ccccc2)cc1
> 100 µM: [1]
inactive: [2] > 100 µM | [3] > 100 µM | [4] > 100 µM | [5] > 100 µM | [6] > 100 µM | [10] > 100 µM | [11] > 100 µM | [12] > 100 µM | [13] > 100 µM | [14] > 100 µM | [15] > 100 µM | [16] > 100 µM | [17] > 100 µM | [18] > 100 µM

Cc1ccc(SC(=O)N2C(=S)N=C(NC3CCCCC3)C23CCCCC3)cc1
inactive: [19] > 100 µM | [2] > 100 µM | [3] > 100 µM | [4] > 100 µM | [5] > 100 µM | [6] 51.2 µM | [7] 65.8 µM | [8] 95.5 µM | [9] > 100 µM | [10] 75.5 µM | [11] > 100 µM | [12] > 100 µM | [13] 29 µM | [14] > 100 µM | [15] > 100 µM | [16] > 100 µM
87.9 µM: [1]

N#C/C(=C\c1ccccc1O)C(N)=O
87.7 µM: [1]
inactive: [19] 32.3 µM | [2] > 100 µM | [3] 77.3 µM | [4] > 100 µM | [5] > 100 µM | [7] 21.9 µM | [8] > 100 µM | [9] > 100 µM | [10] > 100 µM | [12] > 100 µM | [13] 23.6 µM | [14] > 100 µM | [15] > 100 µM | [17] 62.7 µM | [20] > 100 µM | [18] > 100 µM

O=C(C(=O)n1ccc2ccccc21)c1c[nH]c2ccccc12
inactive: [19] > 10 µM | [2] > 10 µM | [3] > 10 µM | [4] > 10 µM | [5] > 10 µM | [6] > 10 µM | [7] > 10 µM | [8] > 10 µM | [9] > 10 µM | [10] > 10 µM | [11] > 10 µM | [12] > 10 µM | [13] > 10 µM | [14] > 10 µM | [15] > 10 µM | [16] > 10 µM | [17] > 10 µM | [18] > 10 µM
> 10 µM: [1]

CN(C)C(=S)/N=c1\ss/c(=N\S(=O)(=O)c2ccccc2)n1C
inactive: [19] > 100 µM | [2] > 100 µM | [3] > 100 µM | [4] > 100 µM | [5] > 100 µM | [7] > 100 µM | [8] > 100 µM | [9] > 100 µM | [10] > 100 µM | [12] > 100 µM | [13] > 100 µM | [14] > 100 µM | [15] > 100 µM | [17] > 100 µM | [20] > 100 µM | [18] > 100 µM
> 100 µM: [1]
